Values belong to the compound of their own block, whether it stands above or below them.
How the values were obtained:
[1] = twelve weeks at 40° C. and 75% relative humidity
[2] = at about pH 8; cited from earlier work
[3] = 3 tons pressure 1 min; strong grinding dry or with a drop of water, ethanol or isopropanol; 100° C. for 30 minutes; 1 week 100% relative humidity at room temperature
Procedure: The analysis of was performed on ARL (SCINTAG) powder X-Ray diffractometer model X'TRA equipped with a solid stage detector.
Scanning parameters: range: 2-40 degrees two-theta; scan mode: continuous scan; step size: 0.05°, and a rate of 3 deg/min.

[4] = wettability by contact angle measurement; type: physicochemical; conditions: water drops (2 μL) on pellet pressed at 2 t*cm^−2
Procedure: The wettability of the below compounds was determined by contact angle measurement. For this purpose, the substances were pressed (2 t*cm^−2) to a pellet. On each pellet were placed three water drops (2 μL) on three individual measurement points and the contact angle was measured with the apparatus OCA40 (DataPhysics Instruments) on two sides of the drop.

solid form after storage (XRPD, FIG. 15) [1]: transformed into ibrutinib Form A
Compound: C=CC(=O)N1CCC[C@@H](n2nc(-c3ccc(Oc4ccccc4)cc3)c3c(N)ncnc32)C1 [Ibrutinib Form E, 1-[(3R)-3[4-Amino-3-(4-phenoxyphenyl)-1H-pyrazolo[3,4-d]pyrimidin-1-yl]piperidin-1-yl]prop-2-en-lone]

Compound: C=CC(=O)N1CCC[C@@H](n2nc(-c3ccc(Oc4ccccc4)cc3)c3c(N)ncnc32)C1 [Ibrutinib free base form A, 1-[(3R)-3[4-Amino-3-(4-phenoxyphenyl)-1H-pyrazolo[3,4-d]pyrimidin-1-yl]piperidin-1-yl]prop-2-en-lone]
observed aqueous solubility [2]: about 0.013 mg/ml

Compound: C=CC(=O)N1CCCC(n2nc(-c3ccc(Oc4ccccc4)cc3)c3c(N)ncnc32)C1.C=CC(=O)N1CCCC(n2nc(-c3ccc(Oc4ccccc4)cc3)c3c(N)ncnc32)C1.O=C(O)C=CC(=O)O (stereo not shown) [ibrutinib:fumaric acid]
XRPD pattern after stress-tests [3]: No change was observed in the XRPD pattern

contact angle θ [4]: incapable of measurement*
Compound: C=CC(=O)N1CCC[C@@H](n2nc(-c3ccc(Oc4ccccc4)cc3)c3c(N)ncnc32)C1.C=CC(=O)N1CCC[C@@H](n2nc(-c3ccc(Oc4ccccc4)cc3)c3c(N)ncnc32)C1.O=C(O)CCC(=O)O [ibrutinib:succinic acid]

Source: patent US10669275B2 (priority 2015, dated 2020)
